The source of these data is DBAASP.

Common to all, as to experiment: ≥ marks a high value that may be exact or a test limit, other limits are often not marked, values filed in µg/mL are converted to µM
Test [1] has as its system Staphylococcus aureus NCTC 10788.
In test [2] the test system is Pseudomonas aeruginosa CIP A22.
Test [3] concerns Pseudomonas aeruginosa ATCC 27853.
In test [4] the test system is Escherichia coli ATCC 25922.
Test [5] concerns Staphylococcus aureus ATCC 25923.
Test [6] relates to Escherichia coli ATCC 54127.
For test [7], the system named is Escherichia coli NCTC 10418.
For test [8], the system named is Staphylococcus aureus NRS 72.
Test [9] has as its system Pseudomonas aeruginosa 919.
The subject of test [10] is Pseudomonas aeruginosa 910.
The subject of test [11] is Staphylococcus aureus USA 300.
The subject of test [12] is Mycobacterium tuberculosis H37Ra.
Test [13] deals with Klebsiella pneumoniae NCTC 9633.
The subject of test [14] is Haemophilus influenzae ATCC 49247.
Test [15] deals with Acinetobacter baumannii ATCC 19606.
The test system of test [16] is Pseudomonas aeruginosa 253.
The test system of test [17] is Bacillus anthracis Sterne 34F2.

≈ marks a conversion by molar mass, not a printed value.

For the compound `CC[C@H](C)[C@H](NC(=O)[C@H](CC(=O)O)NC(=O)[C@H](CCCCN)NC(=O)[C@H](Cc1c[nH]c2ccccc12)NC(=O)[C@H](CC(C)C)NC(=O)[C@H](C)N)C(=O)N[C@@H](CC(C)C)C(=O)N[C@@H](CCCCN)C(=O)N[C@@H](CC(N)=O)C(=O)N[C@H](C(=O)NCC(=O)N[C@@H](CCCCN)C(=O)N[C@@H](C)C(=O)N[C@@H](C)C(=O)NCC(=O)N[C@@H](CCCCN)C(=O)N[C@@H](C)C(=O)N[C@H](C(=O)N[C@@H](CC(C)C)C(=O)N[C@@H](CC(N)=O)C(=O)N[C@H](C(=O)N[C@H](C(=O)N[C@H](C(=O)N[C@@H](CC(=O)O)C(=O)N[C@@H](CCSC)C(=O)N[C@H](C(=O)N[C@@H](CC(N)=O)C(=O)N[C@@H](CCC(N)=O)C(N)=O)C(C)C)[C@@H](C)O)C(C)C)[C@@H](C)O)C(C)C)C(C)C` [ALWKDILKNVGKAAGKAVLNTVTDMVNQ], the MIC in [1] stood at 3 µM (≈ 8.99 µg/mL); in [2], 4.6 µM (≈ 13.8 µg/mL); in test [3], 11.6 µM (≈ 34.8 µg/mL); in test [4], 5 µM (≈ 15 µg/mL); in test [5] it was 3 µM (≈ 8.99 µg/mL); in test [6], 2.3 µM (≈ 6.89 µg/mL). In addition, the MIC in [7] is 5 µM (≈ 15 µg/mL).

As to `CC(C)[C@H](NC(=O)[C@H](Cc1c[nH]c2ccccc12)NC(=O)[C@H](CCCN=C(N)N)NC(=O)[C@H](Cc1c[nH]c2ccccc12)NC(=O)[C@H](Cc1c[nH]c2ccccc12)NC(=O)[C@H](CCCN=C(N)N)NC(=O)[C@@H](N)CCCN=C(N)N)C(=O)N[C@H](C(=O)N[C@@H](Cc1c[nH]c2ccccc12)C(N)=O)C(C)C` [RRWWRWVVW], the MIC in test [8] turned out to be 20 µM (≈ 28.6 µg/mL); in test [9] it was 2 µM (≈ 2.86 µg/mL); in [10], 8 µM (≈ 11.4 µg/mL); in test [11], 20 µM (≈ 28.6 µg/mL); in test [12] it was 20 µM (≈ 28.6 µg/mL); in [13], 2.5 µM (≈ 3.57 µg/mL). Further, the MIC in test [14] is at least 40 µM; in test [15] it was 10 µM (≈ 14.3 µg/mL); in [16], 8 µM (≈ 11.4 µg/mL); in test [17] it was 20 µM (≈ 28.6 µg/mL).
